In one experiment the test system is BxPC-3-vector cells. The experiment can be described thus: MTS based cell proliferation assay, BxPC-3-vector cells. Details: species or system human. As to conditions: BxPC-3-vector (BxPc3Vc, pMSCVneo empty vector), 4 days. Here is the method:
(§1) The inhibition of cell proliferation by library compounds was evaluated using the CellTiter 96 Non-Radioactive Cell Proliferation Assay following the protocol recommended by the manufacturer (Promega, Madison Wis.). Briefly, 2000 cells were seeded in each well of 96-well plates in 90 μl growth medium. Cells were allowed to attach overnight followed by addition of 10 μl of serially diluted compounds into the plates. After incubation for 4 days at 37° C. in a humidified incubator, 20 μl of a 20:1 mixture of (3-(4,5-dimethylthiazol-2-yl)-5-(3-carboxymethoxyphenyl)-2-(4-sulfophenyl)-2H-tetrazolium, inner salt (MTS, 2 mg/ml) and an electron coupling reagent, phenazine methosulfate (PMS, 0.92 mg/ml), was added to each well and incubated for 3 hours at 37° C. Absorbance was then measured using the Wallace Victor microplate reader at 490 nm (PerkinElmer, Wellesley, Mass.). Data were expressed as the percentage of cell growth calculated from the absorbance corrected for background absorbance. The surviving fraction of cells was determined by dividing the mean absorbance values of the treated samples by the mean absorbance values of the DMSO control.
After generating the isogenic cell lines for the DPC4 gene, Applicants then carried out a screening process using the cell lines with the aim to identify compounds that selectively kill cells with deficient DPC4 function. […]

Another experiment deals with BxPC-3-DPC4 cells. Put plainly: MTS based cell proliferation assay, BxPC-3-DPC4 cells. As to conditions: for IC50: BxPC-3-DPC4 (reexpression of wild-type DPC4), MTS, 4 days. Further details: species or system human. As to the method: as §1
After generating the isogenic cell lines for the DPC4 gene, Applicants then carried out a screening process using the cell lines with the aim to identify compounds that selectively kill cells with deficient DPC4 function. […] In each round, the anti-proliferative activity of compounds was evaluated in different cell lines using the CellTiter 96 Non-Radioactive Cell Proliferation Assay (Promega). In the Toxicity Screen, compounds were evaluated in the BxPC-3 parental cell line at a single concentration of 10 μM. […] The activities of a compound in the DPC4 isogenic cell lines were calculated and a selectivity index was determined for each concentration (Selectivity index=Percentage cell survival in BxPC-3-DPC4 cells/Percentage cell survival in BxPC-3-vector cells). […] These ten compounds were further evaluated in third round of screening, the Selectivity screening. […]

The test system of another experiment is caspase-3. The experiment can be described thus: Caspase-3 activation analysis by Western blot. The settings on record: BxPC-3-vector and BxPC-3-DPC4 cells, 25 μM, 24 hours. It counts as cell-based, human. As to the method: FIG. 5A provides a graphic depiction of the Annexin V staining. The percentage of cells in the indicated M1 region was 4.6% in the untreated control and 8.2%, in the UA62001-treated (25 μM, 24 hours) BxPC-3 cells. FIG. 5B provides an image of the activation of pro-caspase-3 in BxPC-3 cells after UA62001 treatment. Whole cell extracts were prepared from BxPC-3-vector and BxPC-3-DPC4 cells after UA62001 (25 μM, 24 hours) treatment. Each lane was loaded with 20 μg of total protein. Camptothecin treated Jurkat cell lysate (20 μg) was loaded as the positive control. Lane 1, BxPC-3-DPC4; lane 2, BxPC-3-DPC4-UA62001; lane 3, BxPC-3-vector; lane 4, BxPC-3-vector-UA62001; lane 5, Jurkat-camptothecin.
Whole cell extracts were prepared using Nonidet P-40 (NP-40) lysis buffer (1% IGEPAL CA-630, a substitute for NP-40, 150 mM NaCl, 50 mM Tris-HCl [pH 7.4], 2 mM EDTA). […] Protein concentrations of the lysates or fractionates were determined using the BCA reagents (PIERCE). […] DPC4 protein was detected by a monoclonal antibody (Oncogene Research Products, Boston, Mass.). p21 protein was detected by a polyclonal antibody (Cell Signaling Technology, Beverly, Mass.). Both active and proto-form of the caspas-3 were detected by a polyclonal antibody obtained from BD Pharmingen (BD Biosciences Pharmingen, San Diego, Calif.). β-Actin, which served as a loading control was detected by a monoclonal antibody (Sigma). […]
For orientation: A western blot detects proteins with antibodies after separation by electrophoresis.

A further experiment relates to BxPC-3 cells. Put plainly: Cell cycle distribution analysis (propidium iodide, flow cytometry). Format: cell-based, human. The settings on record: BxPC-3, 25 μM. Here is the method:
Cells (5×10^5) were plated in a T-25 tissue culture flask 24 hours prior to the drug treatment. […] After the treatment, the cells were harvested by trypsinization and centrifugation and then stained with propidium iodide (Sigma) in a modified Krishan buffer (20) for 4 hours at 4° C. The PI stained samples were then analyzed with a FACScan flow cytometer (BD Immunocytometry systems, San Jose, Calif.). Histograms were analyzed for cell cycle compartments and the percentage of cells at each phase of the cell cycle was calculated using CellQuest (BD Immunocytometry systems) analysis software.
(In general: In flow cytometry, cells or beads pass a laser one at a time.)

The structures appear in SMILES notation.

What is called IC50 is the point on the concentration scale where inhibition reaches its midpoint. A lower IC50 goes with higher potency.

In the case of `O=C1c2ccccc2C(=O)c2c1ccc1c(=O)n(-c3ccccc3)[nH]c21` [UA62001, 2-phenyl-1H-Naphth [2,3-g]indazole-3,6,11(2H)-trione], the IC50 was 3.2 ± 0.45 µM in the experiment on BxPC-3-vector cells; 3 µM in the experiment on BxPC-3-vector cells (Homo sapiens, 96 h); 14.7 ± 4.3 µM in the experiment with BxPC-3-DPC4 cells; 25 µM with BxPC-3-DPC4 cells (Homo sapiens, 96 h). Besides, in the experiment on BxPC-3-DPC4 cells (two more stable clones, compared with the original clone), the “IC50 values in two more stable clones of BxPC-3-DPC4 cells” value is on record as “very similar to that in the original clone”. Also, the “cleavage of proto-form of caspase-3” value with caspase-3 is on record as “did not induce the cleavage”. The “cell population in S phase” value in the experiment on BxPC-3 cells (24 hours, control 33.6%) is reported as 55.6%; in the experiment on BxPC-3 cells (48 hours, control 28.6%), 59.5%; with BxPC-3 cells (72 hours, control 17.0%), 57.4%. The same compound had a G2/M phase population with BxPC-3 cells (untreated control ~10%) of approximately 20%.

(Values after patent US8394742B2, “Methods, compounds and compositions with genotype selective anticancer activity” (The Translation Genomics Research Institute, priority 2005, dated 2013).)
